The results in this text go back to patent publication US20070254324A1, “Method for determination of platelet function under flow conditions” (DADE BEHRING MARBURG GmbH, priority 2006, published 2007).

Type in all cases: cell-based, human
Assay [1] deals with platelet function in whole blood. The assay can be described thus: Closure time under flow conditions, PFA-100 Col/ADP test cartridge. As to conditions: for Number of samples with closure times above the cut-off (n = 11): cut-off 115 seconds, ASA 30 μmol/L. The procedure: (§1) Venous blood was taken from 11 healthy donors and anticoagulated with sodium citrate (3.2% buffered Na citrate).
(§2) Aliquots of the citrated whole blood sample were treated in vitro with the P2Y(12) antagonist MRS 2395 (Sigma-Aldrich Chemie GmbH, Steinheim, Germany). For this purpose an ethanolic MRS 2395 stock solution (15 mg/mL) was mixed with the whole blood samples so that an end concentration of 100 μmol/L was obtained.
(§3) Further aliquots of the citrated whole blood samples were treated in vitro with the COX-1 inhibitor acetylsalicylic acid (abbr.: ASA; Sigma-Aldrich Chemie GmbH, Steinheim, Germany). For this purpose an aqueous ASA stock solution (1 mg/mL) was mixed with whole blood samples so that an end concentration of 30 μmol/L was obtained.
(§4) After addition of the reagents the blood samples were incubated at room temperature for 5 minutes.
(§5) Venous blood was taken from healthy donors and anticoagulated with sodium citrate (3.2% buffered Na citrate). The closure time determination was carried out for each whole blood sample in the PFA-100® apparatus. Samples from 186 donors were determined in duplicate with a Col/Epi PFA-100® test cartridge [see Example 1d)] and a Col/ADP PFA-100® test cartridge [see Example 1d)].
(§6) The reference ranges (normal range) for the Col/Epi closure time and the Col/ADP closure time were established in that the measurement value ranges determined in which 90% of the measurement values for the healthy subjects were found (90% central interval of the normal distribution of all measurements). This gave the following reference ranges for the closure times:
(§7) The upper reference limit of the reference range was defined as cut-off, i.e. as threshold value, for a platelet dysfunction. If the closure time of a patient sample deviates from the reference range it can indicate a platelet dysfunction. This means Col/Epi closure times that are greater than 158 seconds and Col/ADP closure times that are greater than 115 seconds indicate the presence of a platelet dysfunction within the sense of a reduced aggregation efficiency.
(§8) To determine the closure time using a Col/Epi PFA-100® test cartridge (2 μg of collagen and 10 μg of epinephrine on the partition member; 150 μm aperture diameter; Dade Behring Marburg GmbH, Marburg, Germany) and using a Col/ADP PFA-100® test cartridge (2 μg of collagen and 50 μg of ADP on the partition member; 150 μm aperture diameter; Dade Behring Marburg GmbH, Marburg, Germany) as measure of platelet function, whole blood samples described in Example 1a) were investigated in a PFA-100® apparatus (Platelet Function Analyzer-100, Dade Behring Marburg GmbH, Marburg, Germany).
(§9) Aliquots of the samples described in 1a) were taken and mixed according to the invention either with prostaglandin E1 (abbr.: PGE1) or with forskolin (both purchased from Sigma-Aldrich Chemie GmbH, Steinheim, Germany) for activating intracellular adenylate cyclases. For this purpose, the samples were mixed with an ethanolic PGE1 stock solution (0.05 mg/mL) or with an ethanolic forskolin stock solution (5 mg/mL) to reach a final concentration of 12.5 nM PGE1 or a final concentration of 1 μM forskolin. Further aliquots of the samples described in 1a) were not mixed with an activator of intracellular adenylate cyclases and served as control.
(§10) Then in each case 800 μl of the blood samples mixed with PGE1 or forskolin, or of the control samples were put into the reservoir of a Col/Epi or Col/ADP test cartridge (+37° C.) and incubated in the apparatus at +37° C. for 3 minutes. A partial vacuum of −40 mbar was generated by the apparatus, thus sucking the blood out of the reservoir through the capillary (diameter 200 μm) and finally through the opening (aperture) of the partition member into the measurement chamber. The closure time was determined as the time required until the aperture was closed by formation of a blood clot. […]

Assay [2] has the same test system. The assay can be described thus: Closure time under flow conditions, PFA-100 Col/Epi test cartridge. The following applies: for Number of samples with closure times above the cut-off (n = 11): cut-off 158 seconds, ASA 30 μmol/L. Here is the method:
as §1, §2, §3, §4, §5, §6, §7, §8, §9, §10

Assay [3] has as its system platelet aggregation in platelet rich plasma. The assay can be described thus: ADP induced light transmission aggregometry (according to Born). As to conditions: 100 μmol/L MRS 2395 in vitro; PRP; 5 μM ADP. Here is the method: as §1, §2, §4
In order to check whether the samples treated with MRS 2395 actually show a reduced platelet aggregation, platelet rich (PRP) and platelet poor (PPP) plasma was prepared from aliquots of the untreated and MRS 2395-treated whole blood samples described under Example 1a). Then the samples were treated with 5 μM ADP. The PPP samples were used as blank controls. The photometric measurement of the aggregation reaction was carried out in the automated coagulation apparatus BCT® (Dade Behring Marburg GmbH, Marburg, Germany) under continuous stirring (600 rpm). The platelet aggregation of the samples treated with MRS 2395 was reduced by a mean of 27% compared with the platelet aggregation of the untreated samples.

[4] abbreviates: +12.5 nM PGE1, MRS 2395 100 μmol/L.
The mark [5] stands for this setting: +1 μM forskolin, MRS 2395 100 μmol/L.
Setting [6] is: +1 μM forskolin, MRS 2395 100 μmol/L, listed as ASA.
[7] abbreviates: Control (no activator), MRS 2395 100 μmol/L.
Where [8] appears, read: normal untreated whole blood, 12.5 nM PGE1 or 1 μM forskolin.

On to `CC(=O)Oc1ccccc1C(=O)O` [Acetylsalicylic acid, acetylsalicylic acid], for which the “Number of samples with closure times above the cut-off (n = 11)” value (shortened to “Number of samples”) in assay [1] (setting [4]) is 4; in assay [1] (setting [5]), 0; in assay [1] (setting [6]), “none”; in assay [1] (setting [7]), 1; in assay [2] (setting [4]) it was 11; in assay [2] (+12.5 nM PGE1, MRS 2395 100 μmol/L, listed as ASA), “all”. Besides, the figures for the “Number of samples” value in assay [2] (setting [5]), in assay [2] (setting [6]) and in assay [2] (setting [7]) were 11, “all” and 8, respectively.
On to `CNc1nc(Cl)nc2c1ncn2CC(COC(=O)C(C)(C)C)COC(=O)C(C)(C)C` [MRS 2395, 2,2-dimethyl-propionic acid 3-(2-chloro-6-methylaminopurin-9-yl)-2-(2,2-dimethyl-propionyloxymethyl)-propyl ester], for which, in assay [3], the “platelet aggregation reduced compared with the untreated samples (mean)” value was 27%. In addition, the “Number of samples” value in assay [1] (setting [5]) is listed as 10; in assay [1] (setting [7]), 2; in assay [2] (setting [5]), 9; in assay [2] (setting [7]), 3.
Turning to `CCCCC[C@H](O)/C=C/[C@H]1[C@H](O)CC(=O)[C@@H]1CCCCCCC(=O)O` [prostaglandin E1], the “prolongation of the closure times of the controls” value is “Neither the amount of forskolin used nor the amount of prostaglandin E1 used led to a significant prolongation” in assay [1] (setting [8]) and “significant prolongation” in assay [2] (setting [8]).
